Results on two compounds are retold here after patent publication US10947188B2, “Small molecule ferroptosis inducers” (THE TRUSTEES OF COLUMBIA UNIVERSITY IN THE CITY OF NEW YORK, priority 2016, dated 2021).

In brackets after ≈: the same amount, converted by molar mass.

The test system of one test is HT-1080 cells. Briefly: Lethality of commercially available CIL41/70 structural analogs. Type of test: cell-based. The settings on record: Homo sapiens, tested once in technical triplicates. The gist of the method: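 HT-1080 cells (1,000/well) dosed at seeding with twofold 12-point dilutions of lethal compounds. Viability read by Alamar Blue fluorescence (530/590 nm) after 6 h, normalized to media and vehicle wells. Analogs tested once, in technical triplicate.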

In the next test the target is T1, GPX4 (Homo sapiens, UniProt P36969).
T1 construct: Cells were sonicated to make cell lysates that were then cleared by centrifugation; endogenous in cells; host or cells: BJeLR cells (lysate of compound-treated cells)
T1 sequence (P36969 1-197): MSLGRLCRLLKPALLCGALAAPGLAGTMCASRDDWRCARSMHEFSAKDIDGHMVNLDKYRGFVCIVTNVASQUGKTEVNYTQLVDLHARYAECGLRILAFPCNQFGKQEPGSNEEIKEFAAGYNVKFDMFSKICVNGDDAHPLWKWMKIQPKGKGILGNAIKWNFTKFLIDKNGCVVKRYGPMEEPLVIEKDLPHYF
Briefly: GPX4 enzymatic activity assay in lysates of treated cells (LC-MS). Type of test: cell-based. The settings on record: BJeLR; 5 μM FIN56 for 10 h. As for the experimental part:
Seeded 17 million BJeLR cells in 225-cm^2 tissue culture flasks (Corning). We then added vehicle (0.1% DMSO for 11 h) or test compound (10 μM erastin for 11 h, 0.5 μM (1S,3R)-RSL3 for 2 h, or 5 μM FIN56 for 10 h). The GPX4 enzymatic activity assay was performed as described previously (Yang et al. 2014). Briefly, 10 million cells were resuspended in cell lysis buffer. Cells were sonicated to make cell lysates that were then cleared by centrifugation at 14,000 r.p.m. for 10 min. The protein concentration of the cleared cell lysates was determined via Bradford protein assay. Mixed 200 μg of cellular protein with phosphatidyl choline hydroperoxide, a GPX4-specific substrate, and reduced glutathione, a GPX4 cofactor. The mixture was incubated at 37° C. for 30 min and then subjected to lipid extraction using chloroform:methanol (2:1) solution. The lipid extract was evaporated using a Rotavap and re-dissolved in 100% ethanol before being injected into the LC-MS instrument for 2-linoleoyl1-palmitoyl-sn-glycero-3-phosphocholine (PLPC) quantitation.

In a further test the test system is NCI60 cell line panel. Briefly: Cell-line selectivity in the NCI60 cell line panel. It is filed as cell-based. An excerpt: Previously reported ferroptosis inducers either deplete glutathione (by inhibiting cystine uptake) or are covalent GPX4 inhibitors.
In the next test the test system is GPX1. Briefly: Western blotting of GPX1 protein abundance. Type of test: cell-based, human. The settings on record: BJeLR; FIN56 5 μM, 10 h. The protocol: Seeded 300,000 cells (HT-1080 or BJeLR) per well in six-well plates. For cotreatment, ferroptosis inducers (10 μM erastin for 11 h, 0.5 μM (1S, 3R)-RSL3 for 2 h, or 5 μM FIN56) and 100 μM α-tocopherol were added to cell culture at the same time, and cells were then incubated for 10 h (FIG. 2E). When other death-modulating compounds (100 nM sodium selenite, 1 μM cerivastatin, 100 μg/mL mevalonic acid, 30 μM C75, or 2 μM cerulenin) were used in cotreatments, cells were pre-incubated with the modulators for 24 h before being treated with ferroptosis inducers for 6 h. Cell lysis, SDS-PAGE and protein transfer to PVDF membrane were performed as previously described (Dixon et al. 2012). We used the following antibodies: anti-human α-tubulin (Santa Cruz Biotechnology, sc-32293, 1:10,000 dilution), anti-human GPX4 (Abcam, ab41787, 1:2,000 dilution), anti-human GPX1 (R&D Systems, AF3798, 1:1,000 dilution), and anti-human SQS (Abcam, ab109723 for full-length, ab195046 for truncated, both at 1:1,000 dilution). Secondary antibodies were from LI-COR (1:3,000 dilution). The PVDF membranes labeled with primary and secondary antibodies were scanned using an Odyssey Imaging System (LI-COR). Experiments were performed in biological triplicates, and the mean±s.e. of intensity was plotted.
(In general: A western blot detects proteins with antibodies after separation by electrophoresis.)

The next test deals with 143B cells. Briefly: FIN56 lethality in 143B cells with or without mitochondrial DNA. Type of test: cell-based. Conditions: ρ+ or ρ0 cells. An excerpt:
CoQ10 is an electron carrier in the mitochondrial respiratory chain and an endogenous antioxidant. However, whether it functions in the regulation of ferroptosis via either of these mechanisms remains to be elucidated. […] Thus, exactly how CoQ10 protects cells from FIN56 remains elusive, but the process may involve reprogramming of lipid metabolism in a way that is not conducive to the execution of ferroptosis, or a specific antioxidant action distinct from that of α-tocopherol.

Test [1] concerns glutathione (GSH and GSSG) in HT-1080 cells. Briefly: Glutathione-quantification assay. Type of test: cell-based. Conditions: 5 μM FIN56 with 100 μM α-tocopherol; 10 h. The protocol:
Seeded 500,000 HT-1080 cells in a 10-cm dish. Cells were grown at 37° C. for 16 h. On the day of the analysis, cells were cotreated with 100 μM α-tocopherol and either vehicle (DMSO) or a ferroptosis inducer (10 μM erastin, 0.5 μM (1S,3R)-RSL3, or 5 μM FIN56) and incubated for 10 h. Cells were then trypsinized, pelleted, washed once with 400 μL of ice-cold PBS containing 1 mM EDTA, and sonicated. After the cell debris had been pelleted and removed, both oxidized and reduced glutathione in 120 μL of sample was quantified in technical triplicates using the QuantiChrome glutathione assay kit (BioAssay Systems). The glutathione quantity was normalized to the protein concentration measured via Bradford assay (Bio-Rad).

For the compound `N/C(=N\OC(=O)C12CC3CC(CC(C3)C1)C2)c1ccccc1` [CIL41], in the test on HT-1080 cells, the EC50 (as a rule, the midpoint of the concentration-response curve) came out at 2.8 µg/mL (≈ 9.38 µM).
With `O=S(=O)(NC1CCCCC1)c1ccc2c(c1)C(=NO)c1cc(S(=O)(=O)NC3CCCCC3)ccc1-2` [FIN56, N2,N7-dicyclohexyl-9-(hydroxyimino)-9H-fluorene-2,7-disulfonamide], on GPX4, the “GPX4 activity in cell lysates” value is reported as “loss of GPX4 activity”. In the test on NCI60 cell line panel, the “cell-line selectivity pattern in NCI60” value is “more similar to other GPX4 inhibitors than to GSH-depleting compounds”. The “abundance of GPX1 protein” value in the test on GPX1 is reported as “but not that of the related selenoprotein GPX1, was substantially decreased”. In the test on 143B cells, the “sensitivity of 143B cells with or without mitochondrial DNA” value is listed as “both sensitive to FIN56-induced ferroptosis”. In addition, the glutathione depletion entry in test [1] is reported as “did not deplete glutathione”.
